Measured values published in patent EP4810052A2, “HCRHR2 SELECTIVE POLYPEPTIDES” (Gubra A/S, priority 2023, dated 2026).
Read-outs that look alike come from different tables or passages of the source. Starred links: 1 amine or outer side, 2 acyl side, 3 side chain; linkers in the order of their positions; H or OH if unused. Non-standard residues stand in square brackets, D forms with d. Residues, ends and D or L forms follow the SMILES beside them. Groups on a side chain read outwards from the residue. *: point of attachment. C20 diacid = O=C(O)CCCCCCCCCCCCCCCCCCC(=O)*; γGlu = O=C(O)[C@H](CCC(=O)[*:2])N[*:1]; NMeI = CC[C@H](C)[C@H](NC)C(=O)O; Nle = CCCC[C@H](N)C(=O)O; AEEA = NCCOCCOCC(=O)O; Aib = CC(C)(N)C(=O)O

How the values were obtained:
hCRHR2 = biological target: T1, hCRHR2 (Homo sapiens, UniProt Q13324); assay: HTRF cAMP assay, determination of hCRHR2 potency (peptide libraries 5 conc., purified peptides 11 conc.); format: cell-based
T1 sequence (Q13324 1-411): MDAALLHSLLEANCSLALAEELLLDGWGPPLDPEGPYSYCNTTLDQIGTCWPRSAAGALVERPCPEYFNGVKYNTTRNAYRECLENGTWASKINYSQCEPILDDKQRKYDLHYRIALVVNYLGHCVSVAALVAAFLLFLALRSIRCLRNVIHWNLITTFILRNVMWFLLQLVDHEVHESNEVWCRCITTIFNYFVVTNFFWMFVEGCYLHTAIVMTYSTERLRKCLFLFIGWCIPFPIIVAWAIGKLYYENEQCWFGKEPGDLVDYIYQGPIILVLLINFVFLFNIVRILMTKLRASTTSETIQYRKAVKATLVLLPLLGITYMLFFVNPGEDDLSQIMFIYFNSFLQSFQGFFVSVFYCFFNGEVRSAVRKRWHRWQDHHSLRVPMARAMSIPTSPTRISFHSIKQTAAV
In short: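 Agonist peptides are added to suspended, freshly thawed CHO-K1 cells that stably carry the human receptor. Intracellular cAMP competes with d2-cAMP for a cryptate-tagged antibody, lowering the FRET signal. A variable-slope sigmoid curve is fitted to obtain EC50.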

hCRHR1 = biological target: T2, hCRHR1 (Homo sapiens, UniProt P34998); assay: HTRF cAMP assay, determination of hCRHR1 potency (peptide libraries 5 conc., purified peptides 11 conc.); format: cell-based
T2 sequence (P34998 24-415): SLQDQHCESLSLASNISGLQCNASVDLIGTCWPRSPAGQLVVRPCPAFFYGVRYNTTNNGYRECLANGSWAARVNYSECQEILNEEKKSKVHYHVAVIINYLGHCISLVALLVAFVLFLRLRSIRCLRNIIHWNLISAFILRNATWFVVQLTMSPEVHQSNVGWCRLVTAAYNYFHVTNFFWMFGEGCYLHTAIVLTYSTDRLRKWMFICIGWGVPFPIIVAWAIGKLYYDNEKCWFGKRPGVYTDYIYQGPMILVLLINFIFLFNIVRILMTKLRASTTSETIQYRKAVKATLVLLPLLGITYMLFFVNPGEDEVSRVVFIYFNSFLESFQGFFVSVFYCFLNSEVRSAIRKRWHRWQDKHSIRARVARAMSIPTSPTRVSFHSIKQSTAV
In short: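 CHO-K1 cells stably expressing human CRHR1, thawed from frozen stocks just before use, were stimulated in suspension with agonist peptides. cAMP was measured by HTRF competitive immunoassay (cryptate anti-cAMP antibody vs d2-cAMP).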

[1] = Thioflavin T fibril formation assay of purified peptides; format: physicochemical; design: key: Amyloid fibril formation detected by an increase in ThT fluorescence was denoted with "Yes"; samples without increasing ThT fluorescence hence not forming amyloid fibrils were denoted "No"
In short: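 Compounds at 200 µM in 50 mM phosphate buffer at the stated pH values, or at 200 µM in semaglutide drug product adjusted to pH 7.4, with 4 µM ThT final. Fibrillation followed as ThT fluorescence (ex 450/em 480 nm) over 96 h at 40°C, with 5 min shaking at 700 rpm alternating with 5 min rest; triplicates.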

[2] = Chemical stability of purified peptides (RP-UHPLC main peak purity loss); format: physicochemical
In short: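 Peptides at about 1.0 mg/ml in 50 mM phosphate buffer pH 7.5, or pH-adjusted for the pH series, were incubated at 40 °C for 14 and 28 days. Main-peak purity was taken as main-peak area over total area by RP-UHPLC (UV 215 nm, C8, 50 °C). Purity loss was calculated versus T0.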

[3] = pH 7.5
[4] = Table 5, purified peptides, read-out: hCRHR2 EC50
[5] = Table 5, purified peptides, read-out: hCRHR1 EC50
[6] = purified peptides, CHO-K1 cells stably expressing hCRHR2, cAMP HTRF, read-out: hCRHR2 EC50
[7] = purified peptides, CHO-K1 cells stably expressing hCRHR1, cAMP HTRF, read-out: hCRHR1 EC50
[8] = pH 7.5, 40°C, 14 days, first value of cell

Selectivity ratio (hCRHR1/ hCRHR2) (hCRHR2; Table 5)	EC50 (hCRHR2; [4]) [nM]	EC50 (hCRHR2; library peptides, matched molecular pairs L vs Nle in position X^38, read-out: Potency hCRHR2 pEC50 (converted)) [nM]	EC50 (hCRHR1; [5]) [nM]	EC50 (hCRHR1; library peptides, matched molecular pairs L vs Nle in position X^38, read-out: Potency hCRHR1 pEC50 (converted)) [nM]	Fibrillation (pH 7.5) ([1]; pH 7.5)	Chemical stability at pH 7.5 after 14 days at 40°C (% degradation) ([2]; pH 7.5, 14 days, 40°C) [%]	Chemical stability at pH 7.5 after 28 days at 40°C (% degradation) ([2]; pH 7.5, 28 days, 40°C) [%]	Solubility pH 7.5, target conc. =10 mg/mL (measured mg/mL) [3] [mg/mL]	Selectivity ratio (hCRHR1/ hCRHR2) (hCRHR2; hCRHR1-EC50/hCRHR2-EC50)	EC50 (hCRHR2; [6]) [nM]	EC50 (hCRHR1; [7]) [nM]	Fibrillation (pH 7.5) ([1]; pH 7.5, ThT assay)	Chemical stability at pH 7.5 after 14 days at 40°C (% degradation) [2, 8]	Chemical stability at pH 7.5 after 28 days at 40°C (% degradation) ([2]; pH 7.5, 40°C, 28 days, second value of cell) [%]	Compound
>9259	0.54	0.2	> 5000	3980	No	-0.5	-8.8	10	–	–	–	–	–	–	CCCC[C@H](NC(=O)[C@@H](NC(=O)[C@H](CCC(=O)O)NC(=O)[C@H](C)NC(=O)[C@H](CC(N)=O)NC(=O)[C@@H](NC(=O)[C@H](CCCCNC(=O)COCCOCCNC(=O)COCCOCCNC(=O)CC[C@H](NC(=O)CC[C@H](NC(=O)CCCCCCCCCCCCCCCCCCC(=O)O)C(=O)O)C(=O)O)NC(=O)[C@H](C)NC(=O)[C@H](CCC(N)=O)NC(=O)[C@H](CCC(=O)O)NC(=O)[C@H](CCCNC(=N)N)NC(=O)[C@H](C)NC(=O)[C@H](C)NC(=O)[C@H](CCCNC(=N)N)NC(=O)[C@H](C)NC(=O)[C@H](CCCNC(=N)N)NC(=O)[C@H](C)NC(=O)[C@H](CCC(N)=O)NC(=O)[C@H](CCC(=O)O)NC(=O)[C@H](CC(C)C)NC(=O)[C@H](CC(C)C)NC(=O)[C@@H](NC(=O)[C@H](CCC(N)=O)NC(=O)[C@H](CC(C)C)NC(=O)[C@H](CC(C)C)NC(=O)CNC(=O)[C@@H](NC(=O)[C@@H]1CCCN1C(=O)[C@@H](NC(=O)[C@H](CC(=O)O)NC(=O)[C@H](CC(C)C)NC(=O)[C@H](CO)NC(=O)[C@H](CC(C)C)NC(=O)[C@@H](NC(=O)[C@@H](N)[C@@H](C)CC)C(C)C)C(C)C)[C@@H](C)CC)[C@@H](C)CC)[C@@H](C)O)[C@@H](C)CC)C(=O)N[C@@H](C)C(=O)N[C@@H](CCC(=O)O)C(=O)N[C@H](C(N)=O)[C@@H](C)CC [compound 69] (H-IVLSLDVPIGLLQILLEQARARAAREQAK([AEEA-AEEA-γGlu-γGlu-C20 diacid])TNAEI[Nle]AEI-NH2)
–	–	–	–	–	–	–	–	8.9	>926	5.4	> 5000	No	-0.3%	-1.6	CC[C@H](C)[C@H](N)C(=O)N[C@H](C(=O)N[C@@H](CC(C)C)C(=O)N[C@@H](CO)C(=O)N[C@@H](CC(C)C)C(=O)N[C@@H](CC(=O)O)C(=O)N[C@H](C(=O)N1CCC[C@H]1C(=O)N[C@H](C(=O)NCC(=O)N[C@@H](CC(C)C)C(=O)N[C@@H](CC(C)C)C(=O)N[C@@H](CCC(N)=O)C(=O)N[C@H](C(=O)N[C@@H](CC(C)C)C(=O)N[C@@H](CC(C)C)C(=O)N[C@@H](CCC(=O)O)C(=O)N[C@@H](CCC(N)=O)C(=O)N[C@@H](C)C(=O)N[C@@H](CCCNC(=N)N)C(=O)N[C@@H](C)C(=O)N[C@@H](CCCNC(=N)N)C(=O)N[C@@H](C)C(=O)N[C@@H](C)C(=O)N[C@@H](CCCNC(=N)N)C(=O)N[C@@H](CCC(=O)O)C(=O)N[C@@H](CCC(N)=O)C(=O)N[C@@H](C)C(=O)N[C@@H](CCCCNC(=O)COCCOCCNC(=O)COCCOCCNC(=O)CC[C@H](NC(=O)CC[C@H](NC(=O)CCCCCCCCCCCCCCCCCCC(=O)O)C(=O)O)C(=O)O)C(=O)N[C@H](C(=O)N[C@@H](CC(N)=O)C(=O)N[C@H](C(=O)N[C@@H](CCC(=O)O)C(=O)N[C@H](C(=O)N[C@@H](CC(C)C)C(=O)N[C@@H](C)C(=O)N[C@@H](CCC(=O)O)C(=O)N[C@H](C(N)=O)C(C)C)[C@@H](C)CC)[C@@H](C)CC)[C@@H](C)O)[C@@H](C)CC)[C@@H](C)CC)C(C)C)C(C)C [SEQ ID NO: 13] (H-IVLSLDVPIGLLQILLEQARARAAREQAK([AEEA-AEEA-γGlu-γGlu-C20 diacid])TNIEILAEV-NH2)
–	–	–	–	–	–	–	–	11	>3571	1.4	> 5000	No	-2.2 / ND %	–	CC[C@H](C)[C@H](NC)C(=O)N[C@H](C(=O)N[C@@H](CC(C)C)C(=O)N[C@@H](CO)C(=O)N[C@@H](CC(C)C)C(=O)N[C@@H](CC(=O)O)C(=O)N[C@H](C(=O)N1CCC[C@H]1C(=O)N[C@H](C(=O)NCC(=O)N[C@@H](CC(C)C)C(=O)N[C@@H](CC(C)C)C(=O)N[C@@H](CCC(N)=O)C(=O)N[C@H](C(=O)N[C@@H](CC(C)C)C(=O)N[C@@H](CC(C)C)C(=O)N[C@@H](CCC(=O)O)C(=O)N[C@@H](CCC(N)=O)C(=O)N[C@@H](C)C(=O)N[C@@H](CCCNC(=N)N)C(=O)N[C@@H](C)C(=O)N[C@@H](CCCNC(=N)N)C(=O)N[C@@H](C)C(=O)N[C@@H](C)C(=O)N[C@@H](CCCNC(=N)N)C(=O)N[C@@H](CCC(=O)O)C(=O)N[C@@H](CCC(N)=O)C(=O)N[C@@H](C)C(=O)N[C@@H](CCCCNC(=O)COCCOCCNC(=O)COCCOCCNC(=O)CC[C@H](NC(=O)CC[C@H](NC(=O)CCCCCCCCCCCCCCCCCCC(=O)O)C(=O)O)C(=O)O)C(=O)N[C@@H](CCC(=O)O)C(=O)N[C@@H](CC(N)=O)C(=O)N[C@@H](C)C(=O)N[C@@H](CCC(=O)O)C(=O)N[C@H](C(=O)N[C@@H](CC(C)C)C(=O)N[C@@H](C)C(=O)N[C@@H](CCC(=O)O)C(=O)N[C@H](C(N)=O)C(C)C)[C@@H](C)CC)[C@@H](C)CC)[C@@H](C)CC)C(C)C)C(C)C [SEQ ID NO: 18] (H-[NMeI]VLSLDVPIGLLQILLEQARARAAREQAK([AEEA-AEEA-γGlu-γGlu-C20 diacid])ENAEILAEV-NH2)
>6494	0.77	–	> 5000	–	No	-0.43	-0.8	11	–	–	–	–	–	–	CCCC[C@H](NC(=O)[C@@H](NC(=O)[C@H](CCC(=O)O)NC(=O)C(C)(C)NC(=O)[C@H](CC(N)=O)NC(=O)[C@@H](NC(=O)[C@H](CCCCNC(=O)COCCOCCNC(=O)COCCOCCNC(=O)CC[C@H](NC(=O)CC[C@H](NC(=O)CCCCCCCCCCCCCCCCCCC(=O)O)C(=O)O)C(=O)O)NC(=O)[C@H](C)NC(=O)[C@H](CCC(N)=O)NC(=O)[C@H](CCC(=O)O)NC(=O)[C@H](CCCNC(=N)N)NC(=O)[C@H](C)NC(=O)[C@H](C)NC(=O)[C@H](CCCNC(=N)N)NC(=O)[C@H](C)NC(=O)[C@H](CCCNC(=N)N)NC(=O)[C@H](C)NC(=O)[C@H](CCC(N)=O)NC(=O)[C@H](CCC(=O)O)NC(=O)[C@H](CC(C)C)NC(=O)[C@H](CC(C)C)NC(=O)[C@@H](NC(=O)[C@H](CCC(N)=O)NC(=O)[C@H](CC(C)C)NC(=O)[C@H](CC(C)C)NC(=O)CNC(=O)[C@@H](NC(=O)[C@@H]1CCCN1C(=O)[C@@H](NC(=O)[C@H](CC(=O)O)NC(=O)[C@H](CC(C)C)NC(=O)[C@H](CO)NC(=O)[C@H](CC(C)C)NC(=O)[C@@H](NC(=O)[C@@H](N)[C@@H](C)CC)C(C)C)C(C)C)[C@@H](C)CC)[C@@H](C)CC)[C@@H](C)O)[C@@H](C)CC)C(=O)N[C@@H](C)C(=O)N[C@@H](CCC(=O)O)C(=O)N[C@H](C(N)=O)[C@@H](C)CC [compound 100] (H-IVLSLDVPIGLLQILLEQARARAAREQAK([AEEA-AEEA-γGlu-γGlu-C20 diacid])TN[Aib]EI[Nle]AEI-NH2)
